From US11077050B2, “Formulation for parenteral administration” (MERCK SHARP & DOHME CORP., priority 2017, dated 2021)

Assay: pKa of doravirine
Format: physicochemical

pKa: 9.47
SMILES: Cn1c(Cn2ccc(C(F)(F)F)c(Oc3cc(Cl)cc(C#N)c3)c2=O)n[nH]c1=O [Doravirine]
